Data on eleven compounds can be found in PubChem BioAssay AID652028 (The Scripps Research Institute Molecular Screening Center, 2013).

The assay relates to HEK NFkB luciferase reporter, IL-6 stimulated, luminescence. Description: NFkB signaling inhibitors, luciferase reporter, late-stage follow-up, counter-screen for STAT5 inhibitor project, HEK cells, luminescence, IL-6 stimulus, powder samples (AID 652028). To be noted: at 10 µM; stronger effect = lower value. Background: A reporter such as luciferase makes a cellular process visible.

The source made the active and inactive calls.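 The calls were made as follows: active = fold change under 0.5 at 10 µM in a cell reporter of NFkB inflammatory signaling; inactive = the rest.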

As to `CN1/C(=C\C(=O)CN2C(=O)C3CC=CCC3C2=O)C(C)(C)c2ccccc21` (stereo unspecified), the fold change was 0.828 (inactive).

Regarding `O=C(C[n+]1ccc2ccccc2c1)c1cc2ccccc2oc1=O`, the fold change was 0.218.

As for `CN1/C(=C\C(=O)C[n+]2ccccc2)C(C)(C)c2ccccc21`, the fold change was 0.819 (inactive).

Turning to `CN1/C(=C\C(=O)CN2CCc3ccccc3C2)C(C)(C)c2ccccc21`, the fold change is 0.879 (inactive).

In the case of `CN1/C(=C\C(=O)Cn2nnc(-c3ccccc3)n2)C(C)(C)c2ccccc21`, the fold change is 0.871 (inactive).

Turning to `CCOC(=O)C1CCCN(CC(=O)/C=C2/N(C)c3ccccc3C2(C)C)C1` (stereo unspecified), the fold change was 0.99 (inactive).

With `O=C(C[n+]1ccc2ccccc2c1)c1ccccc1`, the fold change is 0.911 (inactive).

Take `CC(C)(C)C(=O)C[n+]1ccc2ccccc2c1`: the fold change was 0.915 (inactive).

`Cc1cc[n+](CC(=O)/C=C2\N(C)c3ccccc3C2(C)C)c(C)c1`: the fold change was 0.848 (inactive).

`O=C(C[n+]1ccc2ccccc2c1)Nc1ccccc1`: the fold change was 0.947 (inactive).

Turning to `O=C(C[n+]1ccc2ccccc2c1)c1ccc2ccccc2c1`, the fold change is 3.27 (inactive).
